Assay [1] relates to E. coli clinical isolates. The assay is described as follows: microbe, parasite or virus in culture. The settings on record: Escherichia coli. The class given is cell-based. The method, then: Clinical isolate collection and antibiotic resistance determination. […] Hospital-derived qualitative antibiotic susceptibility status denoted each isolate as susceptible (S), intermediate resistant (I), or resistance (R) to the drugs listed in Table 1. Quantitative MICs for the fluoroquinolones ciprofloxacin (CIP), gatifloxacin (GAT), levofloxacin (LVX), and norfloxacin (NOR) were determined in our laboratory as described (LBB).

Assay [2] deals with E. coli BW25113 K-12 strain. The settings on record: deletion of any of three cryptic prophages (rac, e14, CP4-6); cited from earlier work.
Where [3] appears, read: pool H01, n=2 isolates, MDR ≧5, read-out: Fluoroquinolone MIC.
Where [4] appears, read: pool H02, n=5 isolates, MDR ≧3, read-out: Fluoroquinolone MIC.
Setting [5] is: pool H03, n=5 isolates, MDR ≧3, read-out: Fluoroquinolone MIC.
The mark [6] stands for this setting: pool M01, n=10 isolates, MDR ≧3, read-out: Fluoroquinolone MIC.
The mark [7] stands for this setting: pool M02, n=10 isolates, MDR ≧5, read-out: Fluoroquinolone MIC.
Where [8] appears, read: pool M03, n=13 isolates, no MDR, read-out: Fluoroquinolone MIC.
Setting [9] is: pool M04, n=23 isolates, no MDR, read-out: Fluoroquinolone MIC.
Setting [10] is: pool M05, n=16 isolates, MDR ≧5, read-out: Fluoroquinolone MIC.
The mark [11] stands for this setting: pool M06, n=13 isolates, MDR ≧3, read-out: Fluoroquinolone MIC.
Where [12] appears, read: pool M07, n=33 isolates, MDR ≧3, read-out: Fluoroquinolone MIC.
Setting [13] is: pool M08, n=3 isolates, No MDR, read-out: Fluoroquinolone MIC.
[14] abbreviates: pool M09, n=3 isolates, MDR ≧3, read-out: Fluoroquinolone MIC.
[15] abbreviates: pool M10, n=5 isolates, MDR ≧5, read-out: Fluoroquinolone MIC.
The mark [16] stands for this setting: pool M11, n=5 isolates, MDR ≧3, read-out: Fluoroquinolone MIC.
Where [17] appears, read: pool S01, n=9 isolates, no MDR, read-out: Fluoroquinolone MIC.
The mark [18] stands for this setting: pool S02, n=9 isolates, no MDR, read-out: Fluoroquinolone MIC.

Structures are written as SMILES. Converted amounts (≈) assume the structure as drawn. Where two headings read alike, the source gives them in different places.

As for `C[C@H]1COc2c(N3CCN(C)CC3)c(F)cc3c(=O)c(C(=O)O)cn1c23` [LVX, levofloxacin], the MIC in assay [1] (setting [3]) is 10 to 200 µg/mL (≈ 27.7 to 553 µM); in assay [1] (setting [4]), 40 to 50 µg/mL (≈ 111 to 138 µM); in assay [1] (setting [5]), 100 µg/mL (≈ 277 µM); in assay [1] (setting [6]), 20 to 50 µg/mL (≈ 55.3 to 138 µM); in assay [1] (setting [7]), 20 to 50 µg/mL (≈ 55.3 to 138 µM); in assay [1] (setting [8]), 8 to 30 µg/mL (≈ 22.1 to 83 µM). The MIC in assay [1] (setting [9]) is 50 to 100 µg/mL (≈ 138 to 277 µM); in assay [1] (setting [10]), 30 to 50 µg/mL (≈ 83 to 138 µM); in assay [1] (setting [11]), 30 to 100 µg/mL (≈ 83 to 277 µM); in assay [1] (setting [12]), 10 to 20 µg/mL (≈ 27.7 to 55.3 µM); in assay [1] (setting [13]), 50 to 200 µg/mL (≈ 138 to 553 µM); in assay [1] (setting [14]), 10 to 20 µg/mL (≈ 27.7 to 55.3 µM). For the same molecule, the MIC in assay [1] (setting [15]) lay in the range of 30 to 100 µg/mL (≈ 83 to 277 µM); in assay [1] (setting [16]), 20 to 50 µg/mL (≈ 55.3 to 138 µM); in assay [1] (setting [17]) it was 0.02 to 0.07 µg/mL (≈ 0.0553 to 0.194 µM); in assay [1] (setting [18]) it was 0.03 to 0.17 µg/mL (≈ 0.083 to 0.47 µM).
Take `CCn1cc(C(=O)O)c(=O)c2ccc(C)nc21` [nalidixic acid]: in assay [2], the “nalidixic acid MICs” value was “lowered”.
Regarding `COc1c(N2CCNC(C)C2)c(F)cc2c(=O)c(C(=O)O)cn(C3CC3)c12` (centres unmarked) [GAT, gatifloxacin], the MIC lay in the range of 10 to 30 µg/mL (≈ 26.6 to 79.9 µM) in assay [1] (setting [3]); 10 to 30 µg/mL (≈ 26.6 to 79.9 µM) in assay [1] (setting [4]); 50 to 200 µg/mL (≈ 133 to 533 µM) in assay [1] (setting [5]); 10 to 30 µg/mL (≈ 26.6 to 79.9 µM) in assay [1] (setting [6]); 10 to 30 µg/mL (≈ 26.6 to 79.9 µM) in assay [1] (setting [7]); 8 to 30 µg/mL (≈ 21.3 to 79.9 µM) in assay [1] (setting [8]). Moreover, the MIC in assay [1] (setting [9]) was 30 to 100 µg/mL (≈ 79.9 to 266 µM); in assay [1] (setting [10]) it was 10 to 20 µg/mL (≈ 26.6 to 53.3 µM); in assay [1] (setting [11]), 10 to 20 µg/mL (≈ 26.6 to 53.3 µM); in assay [1] (setting [12]), 10 µg/mL (≈ 26.6 µM); in assay [1] (setting [13]), 100 to 300 µg/mL (≈ 266 to 799 µM); in assay [1] (setting [14]) it was 20 µg/mL (≈ 53.3 µM). The MIC lay within 20 to 100 µg/mL (≈ 53.3 to 266 µM) in assay [1] (setting [15]), 10 to 50 µg/mL (≈ 26.6 to 133 µM) in assay [1] (setting [16]), 0.01 to 0.02 µg/mL (≈ 0.0266 to 0.0533 µM) in assay [1] (setting [17]) and 0.01 to 0.09 µg/mL (≈ 0.0266 to 0.24 µM) in assay [1] (setting [18]).
As for `CCn1cc(C(=O)O)c(=O)c2cc(F)c(N3CCNCC3)cc21` [NOR, norfloxacin], the MIC is 1000 µg/mL (≈ 3130 µM) in assay [1] (setting [3]); 400 to 1000 µg/mL (≈ 1250 to 3130 µM) in assay [1] (setting [4]); 400 to 1000 µg/mL (≈ 1250 to 3130 µM) in assay [1] (setting [5]); 200 to 700 µg/mL (≈ 626 to 2190 µM) in assay [1] (setting [6]); 200 to 700 µg/mL (≈ 626 to 2190 µM) in assay [1] (setting [7]); 50 to 200 µg/mL (≈ 157 to 626 µM) in assay [1] (setting [8]). Moreover, the MIC in assay [1] (setting [9]) lay in the range of 200 to 700 µg/mL (≈ 626 to 2190 µM); in assay [1] (setting [10]), 50 to 300 µg/mL (≈ 157 to 939 µM); in assay [1] (setting [11]), 200 to 400 µg/mL (≈ 626 to 1250 µM); in assay [1] (setting [12]), 50 to 200 µg/mL (≈ 157 to 626 µM); in assay [1] (setting [13]) it was 100 to 200 µg/mL (≈ 313 to 626 µM); in assay [1] (setting [14]), 100 to 200 µg/mL (≈ 313 to 626 µM). In addition, the MIC in assay [1] (setting [15]) was 50 to 500 µg/mL (≈ 157 to 1570 µM); in assay [1] (setting [16]), 50 to 200 µg/mL (≈ 157 to 626 µM); in assay [1] (setting [17]), 0.03 to 0.09 µg/mL (≈ 0.0939 to 0.282 µM); in assay [1] (setting [18]), 0.04 to 0.34 µg/mL (≈ 0.125 to 1.06 µM); in assay [1] (pools denoted "H", read-out: norfloxacin MICs), more than 1000 µg/mL.

The values are drawn from patent US20140030712A1, “GENOMIC APPROACH TO THE IDENTIFICATION OF BIOMARKERS FOR ANTIBIOTIC RESISTANCE AND SUSCEPTIBILITY IN CLINICAL ISOLATES OF BACTERIAL PATHOGENS” (priority 2011, published 2014).
